Ki data for 17 compounds are collected here from patent US7115600B2, “Histamine-3 receptor modulators” (Pfizer Inc., priority 2004, dated 2006).

pKi: −log10 of the molar value.

For this test, the target named is T1, rat histamine H3 receptors (Rattus norvegicus, UniProt Q9QYN8).
T1 construct: Frozen rat frontal brain or frozen human post-mortem frontal brain is homogenized; from tissue; host or cells: rat frontal brain membranes
T1 sequence (Q9QYN8 whole entry): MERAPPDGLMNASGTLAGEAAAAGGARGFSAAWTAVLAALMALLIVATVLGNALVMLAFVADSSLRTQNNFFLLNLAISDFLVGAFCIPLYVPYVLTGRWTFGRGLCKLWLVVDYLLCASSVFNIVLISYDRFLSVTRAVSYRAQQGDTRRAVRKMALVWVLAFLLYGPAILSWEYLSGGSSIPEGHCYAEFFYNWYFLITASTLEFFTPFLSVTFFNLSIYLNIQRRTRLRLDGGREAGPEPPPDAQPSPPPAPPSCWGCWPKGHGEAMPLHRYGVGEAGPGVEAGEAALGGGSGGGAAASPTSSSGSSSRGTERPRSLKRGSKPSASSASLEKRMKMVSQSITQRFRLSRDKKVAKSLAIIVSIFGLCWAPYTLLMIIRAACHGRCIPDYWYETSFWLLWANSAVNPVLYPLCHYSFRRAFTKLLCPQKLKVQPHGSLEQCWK
The test is described as follows: Rat Histamine H3 Receptor Binding. Conditions: frozen rat frontal brain membranes; radioligand 1 nM 3H-N-methyl-histamine; 1 hour incubation; read-out: rH3 Ki.
Protocol: The in vitro affinity of the compounds in the present invention at the rat or human histamine H3 receptors can be determined according to the following procedure. Frozen rat frontal brain or frozen human post-mortem frontal brain is homogenized in 20 volumes of cold 50 mM Tris HCl containing 2 mM MgCl2 (pH to 7.4 at 4 degrees C.). The homogenate is then centrifuged at 45,000 G for 10 minutes. The supernatant is decanted and the membrane pellet resuspended by Polytron in cold 50 mM Tris HCl containing 2 mM MgCl2 (pH to 7.4 at 4 degrees C.) and centrifuged again. The final pellet is resuspended in 50 mM Tris HCl containing 2 mM MgCl2 (pH to 7.4 at 25 degrees C.) at a concentration of 12 mg/mL. Dilutions of compounds are made in 10% DMSO/50 mM Tris buffer (pH 7.4) (at 10× final concentration, so that the final DMSO concentration is 1%). Incubations are initiated by the addition of membranes (200 microliters) to 96 well V-bottom polypropylene plates containing 25 microliters of drug dilutions and 25 microliters of radioligand (1 nM final concentration 3H—N-methyl-histamine). After a 1 hour incubation, assay samples are rapidly filtered through Whatman GF/B filters and rinsed with ice-cold 50 nM Tris buffer (pH 7.4) using a Skatron cell harvester. Radioactivity is quantified using a BetaPlate scintillation counter. The percent inhibition of specific binding can then be calculated.
For the compound `C[C@@H]1CN(C[C@H]2C[C@@H](c3ccc(CN4CCCC4)cc3)C2)C[C@H](C)O1` [Example 106, cis-(2R,6S)-2,6-Dimethyl-4-[3-(4-pyrrolidin-1-ylmethyl-phenyl)-cyclobutylmethyl]-morpholine], the pKi is 8.08.

Regarding `c1cc([C@H]2C[C@H](CN3CCCC3)C2)ccc1CN1CCCC1` [Example 107, trans-1-[3-(4-Pyrrolidin-1-ylmethyl-phenyl)-cyclobutylmethyl]-pyrrolidine], the pKi was 8.68.

As to `c1cc([C@H]2C[C@H](CN3CCCCC3)C2)ccc1CN1CCCC1` [Example 108, trans-1-[3-(4-Pyrrolidin-1-ylmethyl-phenyl)-cyclobutylmethyl]-piperidine], the pKi is 9.24.

For the compound `Fc1cnc(N2CCN(C[C@H]3C[C@H](c4ccc(CN5CCCC5)cc4)C3)CC2)nc1` [Example 112, trans-5-Fluoro-2-{4-[3-(4-pyrrolidin-1-ylmethyl-phenyl)-cyclobutylmethyl]-piperazin-1-yl}-pyrimidine], the negative-log Ki (pKi) was 9.11.

Turning to `CCN(CCO)C[C@H]1C[C@H](c2ccc(CN3CCCC3)cc2)C1` [Example 113, trans-2-{Ethyl-[3-(4-pyrrolidin-1-ylmethyl-phenyl)-cyclobutylmethyl]-amino}-ethanol], the pKi is 8.35.

As for `CC1CC(C)CN(C[C@H]2C[C@H](c3ccc(CN4CCCC4)cc3)C2)C1` (stereo partly drawn) [Example 114, trans-3,5-Dimethyl-1-[3-(4-pyrrolidin-1-ylmethyl-phenyl)-cyclobutylmethyl]-piperidine], the pKi was 9.32.

On to `CN(C[C@H]1C[C@H](c2ccc(CN3CCCC3)cc2)C1)C1CCCCC1` [Example 115, trans-Cyclohexyl-methyl-[3-(4-pyrrolidin-1-ylmethyl-phenyl)-cyclobutylmethyl]-amine], for which the pKi was 8.84.

`CN(Cc1ccccc1)C[C@H]1C[C@H](c2ccc(CN3CCCC3)cc2)C1` [Example 116, trans-Benzyl-methyl-[3-(4-pyrrolidin-1-ylmethyl-phenyl)-cyclobutylmethyl]-amine]: the pKi was 8.55.

For `CC1CCN(C[C@H]2C[C@H](c3ccc(CN4CCCC4)cc3)C2)CC1` [Example 119, trans-4-Methyl-1-[3-(4-pyrrolidin-1-ylmethyl-phenyl)-cyclobutylmethyl]-piperidine], the pKi is 8.87.

With `CC1CCCC(C)N1C[C@H]1C[C@H](c2ccc(CN3CCCC3)cc2)C1` (stereo partly drawn) [Example 121, trans-2,6-Dimethyl-1-[3-(4-pyrrolidin-1-ylmethyl-phenyl)-cyclobutylmethyl]-piperidine], the pKi was 8.55.

On to `CN(Cc1cccnc1)C[C@H]1C[C@H](c2ccc(CN3CCCC3)cc2)C1` [Example 122, trans-Methyl-pyridin-3-ylmethyl-[3-(4-pyrrolidin-1-ylmethyl-phenyl)-cyclobutylmethyl]-amine], for which the pKi was 8.57.

Regarding `C[C@@H]1CC[C@@H](C)N1C[C@H]1C[C@H](c2ccc(CN3CCCC3)cc2)C1` [Example 123, trans-(2R,5R)-2,5-Dimethyl-1-[3-(4-pyrrolidin-1-ylmethyl-phenyl)-cyclobutylmethyl]-pyrrolidine], the pKi is 8.16.

In the case of `CCCN(CC1CC1)C[C@H]1C[C@H](c2ccc(CN3CCCC3)cc2)C1` [Example 124], the pKi is 9.31.

Take `c1ccc2c(c1)CN(C[C@H]1C[C@H](c3ccc(CN4CCCC4)cc3)C1)C2` [Example 125, trans-2-[3-(4-Pyrrolidin-1-ylmethyl-phenyl)-cyclobutylmethyl]-2,3-dihydro-1H-isoindole]: the pKi is 8.75.

Take `C[C@@H]1CN(C[C@H]2C[C@H](c3ccc(CN4CCCC4)cc3)C2)C[C@H](C)O1` [Example 126, trans-(2R,6S)-2,6-Dimethyl-4-[3-(4-pyrrolidin-1-ylmethyl-phenyl)-cyclobutylmethyl]-morpholine]: the pKi was 8.72.

As for `O=C1CN(C[C@H]2C[C@H](c3ccc(CN4CCCC4)cc3)C2)CCN1` [Example 127, trans-4-[3-(4-Pyrrolidin-1-ylmethyl-phenyl)-cyclobutylmethyl]-piperazin-2-one], the pKi was 7.00.

`COC[C@@H]1CCCN1C[C@H]1C[C@H](c2ccc(CN3CCCC3)cc2)C1` [Example 128, trans-(S)-2-Methoxymethyl-1-[3-(4-pyrrolidin-1-ylmethyl-phenyl)-cyclobutylmethyl]-pyrrolidine]: the pKi was 8.05.
